Reference: BindingDB's records for doi:10.3109/14756366.2012.656622 (Shandong University, 2013)
Counter-ions that a name gives are not always drawn.

Assays:
[1] = target: 72 kDa type IV collagenase (Pig, UniProt Q95JA4); test: MMP-2 Inhibition Assay
Description: Gelatinase A (MMP-2) and TNBS were purchased from Sigma, and the substance was synthesized as described by Vijaykumar et al. The gelatinase, substance, and inhibitor were dissolved in sodium borate (pH8.5, 50 mmol/L) and incubated for 30 min at 37 °C, and then 0.03 % TNBS was added and incubated for another 20 min, the resulting solution was detected under 450 nm wavelength to gain absorption.

Aminopeptidase N = target: T1, Aminopeptidase N (Sus scrofa, UniProt P15145); test: APN Inhibition Assay; conditions: pH 7.5; 25 °C
T1 sequence (P15145 whole entry): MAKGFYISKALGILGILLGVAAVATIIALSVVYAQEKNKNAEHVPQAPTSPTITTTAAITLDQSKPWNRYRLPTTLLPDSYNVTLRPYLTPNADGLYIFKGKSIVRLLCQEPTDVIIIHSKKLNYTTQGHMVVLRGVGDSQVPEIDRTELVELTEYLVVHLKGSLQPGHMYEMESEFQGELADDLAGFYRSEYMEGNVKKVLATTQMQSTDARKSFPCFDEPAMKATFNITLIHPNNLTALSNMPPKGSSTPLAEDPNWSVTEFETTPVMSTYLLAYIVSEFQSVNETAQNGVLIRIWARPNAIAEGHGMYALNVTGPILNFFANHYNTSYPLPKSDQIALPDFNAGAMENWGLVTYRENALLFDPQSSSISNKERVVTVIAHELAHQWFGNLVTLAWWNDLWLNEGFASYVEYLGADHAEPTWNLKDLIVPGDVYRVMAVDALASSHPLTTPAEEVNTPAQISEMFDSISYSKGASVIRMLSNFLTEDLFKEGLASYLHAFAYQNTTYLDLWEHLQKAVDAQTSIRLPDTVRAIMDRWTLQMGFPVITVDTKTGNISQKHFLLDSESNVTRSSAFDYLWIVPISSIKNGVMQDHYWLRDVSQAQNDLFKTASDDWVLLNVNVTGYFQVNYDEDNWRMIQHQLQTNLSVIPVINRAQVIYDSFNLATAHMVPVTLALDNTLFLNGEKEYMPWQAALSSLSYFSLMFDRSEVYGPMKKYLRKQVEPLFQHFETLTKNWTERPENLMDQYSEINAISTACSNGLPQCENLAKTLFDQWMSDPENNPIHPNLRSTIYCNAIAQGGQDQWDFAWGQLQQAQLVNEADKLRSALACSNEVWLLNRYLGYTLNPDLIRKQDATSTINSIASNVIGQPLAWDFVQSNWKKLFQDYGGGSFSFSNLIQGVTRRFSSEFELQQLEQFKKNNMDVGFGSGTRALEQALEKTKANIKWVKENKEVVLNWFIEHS
Description: IC50 values against APN from Porcine Kidney were determined by using L-Leu-p-nitroanilide as a substrate. All the solutions of the inhibitors were prepared in the assay buffer( pH 7.5). All the inhibitors were preincubated with APN for 5 min at room temperature. The assay mixture, which contained the inhibitor solution (concentration dependent on the inhibitor), the enzyme solution (4 mg/mL final concentration), and the assay buffer, was adjusted to 200 μL, and then incubated at 37 ℃ for 30 min.

Sequence of 72 kDa type IV collagenase (Q95JA4 whole entry): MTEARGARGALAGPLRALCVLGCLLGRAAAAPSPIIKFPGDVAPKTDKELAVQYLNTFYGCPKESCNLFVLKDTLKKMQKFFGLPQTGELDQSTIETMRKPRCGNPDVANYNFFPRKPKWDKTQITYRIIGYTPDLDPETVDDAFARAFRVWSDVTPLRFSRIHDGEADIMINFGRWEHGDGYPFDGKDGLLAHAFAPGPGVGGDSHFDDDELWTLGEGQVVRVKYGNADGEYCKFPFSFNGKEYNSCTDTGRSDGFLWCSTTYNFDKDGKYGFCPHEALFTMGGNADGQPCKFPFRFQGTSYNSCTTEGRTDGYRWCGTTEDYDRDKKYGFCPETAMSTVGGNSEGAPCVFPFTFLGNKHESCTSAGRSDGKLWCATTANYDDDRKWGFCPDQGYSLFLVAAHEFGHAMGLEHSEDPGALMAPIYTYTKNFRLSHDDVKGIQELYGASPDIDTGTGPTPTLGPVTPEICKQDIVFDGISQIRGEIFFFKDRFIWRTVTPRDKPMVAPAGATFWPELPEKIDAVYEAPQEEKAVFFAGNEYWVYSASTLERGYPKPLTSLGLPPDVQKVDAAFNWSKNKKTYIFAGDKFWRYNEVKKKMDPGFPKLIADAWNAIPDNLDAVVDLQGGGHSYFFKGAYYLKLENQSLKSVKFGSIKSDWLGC

SMILES | IC50 [1] [µM] | IC50 (Aminopeptidase N) [µM]
CC(C)C[C@H](NC(=O)[C@@H](O)[C@H](N)Cc1ccccc1)C(=O)O | 163 | 
N[C@@H](c1ccccc1)[C@@H](O)C(=O)N[C@@H](Cc1ccccc1)C(=O)NO [(2R,3S)-3-amino-2-hydroxy-N-((S)-1-(hydroxyamino)-1-oxo-3-phenylpropan-2-yl)-3-phenylpropanamide hydrochloride (7f)] | 249 | 44
N[C@@H](c1ccccc1)[C@@H](O)C(=O)N[C@@H](Cc1ccc(O)cc1)C(=O)NO [(2R,3S)-3-amino-2-hydroxy-N-((S)-1-(hydroxyamino)-3-(4-hydroxyphenyl)-1-oxopropan-2-yl)-3-phenylpropanamide hydrochloride (7g)] | 299 | 173
N[C@@H](c1ccccc1)[C@@H](O)C(=O)N[C@H](C(=O)NO)c1ccccc1 [(2R,3S)-3-amino-2-hydroxy-N-((S)-2-(hydroxyamino)-2-oxo-1-phenylethyl)-3-phenylpropanamide hydrochloride (7e)] | 213 | 1.26
CCC(C)[C@H](NC(=O)[C@H](O)[C@@H](N)c1ccccc1)C(=O)NO (stereo partly drawn) [(2S)-2-((2R,3S)-3-amino-2-hydroxy-3-phenylpropanamido)-N-hydroxy-3-methylpentanamide hydrochloride (7d)] | 207 | 82.9
N[C@@H](c1ccccc1)[C@@H](O)C(=O)N[C@H](C(=O)O)c1ccccc1 [(S)-2-((2R,3S)-3-amino-2-hydroxy-3-phenylpropanamido)-2-phenylacetic acid hydrochloride (5e)] | 254 | 198
N[C@@H](c1ccccc1)[C@@H](O)C(=O)N[C@@H](Cc1ccc(O)cc1)C(=O)O [(S)-2-((2R,3S)-3-amino-2-hydroxy-3-phenylpropanamido)-3-(4-hydroxyphenyl) propanoic acid hydrochloride (5g)] | 407 | 
N[C@@H](c1ccccc1)[C@@H](O)C(=O)N[C@@H](Cc1ccccc1)C(=O)O [(S)-2-((2R,3S)-3-amino-2-hydroxy-3-phenylpropanamido)-3-phenylpropanoic acid hydrochloride (5f)] | 497 | 
Cc1ccccc1NC(=O)[C@H](CC(C)C)NC(=O)[C@H](O)[C@@H](N)c1ccccc1 [(S)-2-((2R,3S)-3-amino-2-hydroxy-3-phenylpropanamido)-4-methyl-N-o-tolylpentanamide hydrochloride (9b)] |  | 363
CC(C)[C@H](NC(=O)[C@H](O)[C@@H](N)c1ccccc1)C(=O)NO [(S)-2-((2R,3S)-3-amino-2-hydroxy-3-phenylpropanamido)-N-hydroxy-3-methylbutanamide hydrochloride (7b)] | 128 | 76.9
CC(C)C[C@H](NC(=O)[C@H](O)[C@@H](N)c1ccccc1)C(=O)NO [(S)-2-((2R,3S)-3-amino-2-hydroxy-3-phenylpropanamido)-N-hydroxy-4-methylpentanamide hydrochloride (7a)] | 64.6 | 56.7
CC(C)C[C@H](NC(=O)[C@H](Cc1ccccc1)NC(=O)[C@H](O)[C@@H](N)c1ccccc1)C(=O)O [(S)-2-((S)-2-((2R,3S)-3-amino-2-hydroxy-3-phenylpropanamido)-3-phenylpropanamido)-4-methylpentanoic acid hydrochloride (5n)] |  | 105
CC(C)C[C@H](NC(=O)[C@H](O)[C@@H](N)c1ccccc1)C(=O)NC(C(=O)O)c1ccccc1 (stereo partly drawn) [(S)-2-((S)-2-((2R,3S)-3-amino-2-hydroxy-3-phenylpropanamido)-4-methylpentanamido)-2-phenylacetic acid hydrochloride (5k)] | 186 | 
CC(C)C[C@H](NC(=O)[C@H](O)[C@@H](N)c1ccccc1)C(=O)N[C@H](C(=O)O)C(C)C [(S)-2-((S)-2-((2R,3S)-3-amino-2-hydroxy-3-phenylpropanamido)-4-methylpentanamido)-3-methylbutanoic acid hydrochloride (5i)] | 690 | 590
CC(C)C[C@H](NC(=O)[C@H](CC(C)C)NC(=O)[C@H](O)[C@@H](N)c1ccccc1)C(=O)O [(S)-2-((S)-2-((2R,3S)-3-amino-2-hydroxy-3-phenylpropanamido)-4-methylpentanamido)-4-methylpentanoic acid hydrochloride (5j)] | 424 | 513

Further lines, results first:

IC50 [1] [µM] | IC50 (Aminopeptidase N) [µM] | SMILES
292 |  | C[C@H](NC(=O)[C@H](O)[C@@H](N)c1ccccc1)C(=O)NO [(2R,3S)-3-amino-2-hydroxy-N-((S)-1-(hydroxyamino)-1-oxopropan-2-yl)-3-phenylpropanamide hydrochloride (7c)]
292 | 158 | N[C@@H](c1ccccc1)[C@@H](O)C(=O)N[C@@H](CO)C(=O)NO [(2R,3S)-3-amino-2-hydroxy-N-((S)-3-hydroxy-1-(hydroxyamino)-1-oxopropan-2-yl)-3-phenylpropanamide hydrochloride (7h)]
264 |  | CCC(C)[C@H](NC(=O)[C@H](O)[C@@H](N)c1ccccc1)C(=O)O (stereo partly drawn) [(2S)-2-((2R,3S)-3-amino-2-hydroxy-3-phenylpropanamido)-3-methylpentanoic acid hydrochloride (5d)]
562 |  | N[C@@H](c1ccccc1)[C@@H](O)C(=O)N[C@@H](CO)C(=O)O [(S)-2-((2R,3S)-3-amino-2-hydroxy-3-phenylpropanamido)-3-hydroxypropanoic acid hydrochloride (5h)]
287 |  | CC(C)[C@H](NC(=O)[C@H](O)[C@@H](N)c1ccccc1)C(=O)O [(S)-2-((2R,3S)-3-amino-2-hydroxy-3-phenylpropanamido)-3-methylbutanoic acid hydrochloride (5b)]
215 | 352 | CC(C)C[C@H](NC(=O)[C@H](O)[C@@H](N)c1ccccc1)C(=O)O [(S)-2-((2R,3S)-3-amino-2-hydroxy-3-phenylpropanamido)-4-methylpentanoic acid hydrochloride (5a)]
273 | 342 | C[C@H](NC(=O)[C@H](O)[C@@H](N)c1ccccc1)C(=O)O [(S)-2-((2R,3S)-3-amino-2-hydroxy-3-phenylpropanamido)propanoic acid hydrochloride (5c)]
